Test: Emulsification of coconut oil and water with different emulsifiers (Example 2)
Type: physicochemical
Settings: coconut oils solid and liquid (MCT); emulsifying agent tested
Method: Several experiments were run using several different emulsifiers and combinations of different coconut oils: solid and liquid (MCT). (Note: liquid MCT is coconut oil that has medium chain triglyceride).
The method used to produce the invention emulsifications, included first heating extra virgin organic coconut oil to between 120 to 220 degrees F. CO2 extracted cannabis oil is added. In a high speed blender (or similar machine) coconut water is added to the coconut fat (oil) to ensure emulsification. While blending, xanthan gum powder is added in an amount between 0.15% and 0.45% of the total volume of finished product. Percentages used herein are on a dry weight basis and are based on the total volume of the finished product. The blender is run at high speed for between 30 seconds and 2.

cyclodextrin
emulsification of the oil and water (result in words): good results

From patent publication US10617636B2, “Cannabis infused sweeteners and elixirs” (SRE Wellness, Inc., priority 2016, dated 2020)
